Experiments:
Type in all cases: biochemical
Human Akt1 = target: T1, Human Akt1 (Homo sapiens, UniProt P31749); assay: Akt kinase assay, GSK3 peptide substrate, Akt1; details: activated full length Akt1, GSK3 peptide substrate
T1 construct: a middle T tag was added to the 5′ end of the full length Akt1 gene; biotin tag (from pS2neo vector); made in house; host or cells: Drosophila S2 cells
Method: (§1) Akt and Akt pleckstrin homology domain deletions were activated (Alessi et al. Current Biology 7:261-269) in a reaction containing 10 nM PDK1 (Upstate Biotechnology, Inc.), lipid vesicles (10 μM phosphatidylinositol-3,4,5-trisphosphate—Metreya, Inc, 100 μM phosphatidylcholine and 100 μM phosphatidylserine—Avanti Polar lipids, Inc.) and activation buffer (50 mM Tris pH7.4, 1.0 mM DTT, 0.1 mM EGTA, 1.0 μM Microcystin-LR, 0.1 mM ATP, 10 mM MgCl2, 333 μg/ml BSA and 0.1 mM EDTA). The reaction was incubated at 22° C. for 4 hours. Aliquots were flash frozen in liquid nitrogen.
(§2) Activated AKT isoforms and pleckstrin homology domain deletion constructs were assayed utilizing a GSK-derived biotinylated peptide substrate. The extent of peptide phosphorylation was determined by Homogeneous Time Resolved Fluorescence […] using a lanthanide chelate (Lance)-coupled monoclonal antibody specific for the phosphopeptide in combination with a streptavidin-linked allophycocyanin (SA-APC) fluorophore which will bind to the biotin moiety on the peptide. […]
(§3) The reaction is assembled by adding 16 μL of the ATP/MgCl2 working solution to the appropriate wells of a 96-well microtiter plate. […] The stopped reactions were incubated at room temperature for at least 30 min and then read on the Discovery instrument. […]

ΔPH-Akt1 = target: T2, ΔPH-Akt1 (Homo sapiens, UniProt P31749); assay: Akt kinase assay, GSK3 peptide substrate, Akt1 delta PH; details: pleckstrin homology domain deleted Akt1, GSK3 peptide substrate
T2 construct: PCR deletion mutagenesis was done using the full length Akt1 gene in the pS2neo vector as template; biotin tag (from pS2neo vector); made in house; host or cells: Drosophila S2 cells

Human Akt2 = target: T3, Human Akt2 (Homo sapiens, UniProt P31751); assay: Akt kinase assay, GSK3 peptide substrate, Akt2; details: activated full length Akt2, GSK3 peptide substrate
T3 construct: a middle T tag was added to the 5′ end of the full length Akt2 using the PCR primer; biotin tag (from pS2neo vector); made in house; host or cells: Drosophila S2 cells
Method: as §1, §2, §3

Human Akt3 = target: T4, Human Akt3 (Homo sapiens, UniProt Q9Y243); assay: Akt kinase assay, GSK3 peptide substrate, Akt3; details: activated full length Akt3, GSK3 peptide substrate
T4 construct: a middle T tag was added to the 5′ end of the full length Akt3 clone; biotin tag (from pS2neo vector); made in house; host or cells: Drosophila S2 cells
Method: as §1, §2, §3

PKA catalytic subunit = target: T5, PKA catalytic subunit (Bos taurus, UniProt P00517); assay: PKA assay (counter screen); details: Kemptide substrate; read-out: Counter screens IC50 (μM) PKA
T5 construct: purchased UBI (Upstate Biotechnology, Inc.) 14-114
Method: The reactions were stopped by adding 50 μl of 100 mM EDTA and 100 mM sodium pyrophosphate and mixing.
After the final wash, the filters were allowed to air dry.

PKC = PKC assay (counter screen); details: Myelin basic protein substrate; read-out: Counter screens IC50 (μM) PKC
Method: Each PKC assay consists of the following components:
The assays were assembled in 96 deep-well assay plates. Inhibitor or vehicle (10 μl) was added to 5.0 μl of ^33P-ATP. Reactions were initiated with the addition of the PKC/Myelin Basic Protein working solution and mixing. Reactions were incubated at 30° C. for 20 min. The reactions were stopped by adding 50 μl of 100 mM EDTA and 100 mM sodium pyrophosphate and mixing. Phosphorylated Mylein Basic Protein was collected on PVDF membranes in 96 well filter plates and quantitated by scintillation counting.

ΔPH-Akt2 = target: T6, ΔPH-Akt2 (Homo sapiens, UniProt P31751); assay: Akt kinase assay, GSK3 peptide substrate, Akt2 delta PH; details: pleckstrin homology domain deleted Akt2, GSK3 peptide substrate
T6 construct: PCR was performed using the full length Akt2 gene as template; biotin tag (from pS2neo vector); made in house; host or cells: Drosophila S2 cells
T6 sequence (P31751 with tags, fused parts or gaps): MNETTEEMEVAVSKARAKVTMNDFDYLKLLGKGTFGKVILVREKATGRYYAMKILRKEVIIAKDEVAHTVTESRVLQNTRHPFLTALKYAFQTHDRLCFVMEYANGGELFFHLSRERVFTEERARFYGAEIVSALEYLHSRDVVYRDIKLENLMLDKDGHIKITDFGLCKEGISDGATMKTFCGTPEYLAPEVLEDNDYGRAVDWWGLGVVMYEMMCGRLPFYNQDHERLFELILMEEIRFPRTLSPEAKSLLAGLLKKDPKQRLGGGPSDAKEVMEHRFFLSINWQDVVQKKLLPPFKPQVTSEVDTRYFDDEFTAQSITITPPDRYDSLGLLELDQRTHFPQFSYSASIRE

T4 sequence (Q9Y243 whole entry): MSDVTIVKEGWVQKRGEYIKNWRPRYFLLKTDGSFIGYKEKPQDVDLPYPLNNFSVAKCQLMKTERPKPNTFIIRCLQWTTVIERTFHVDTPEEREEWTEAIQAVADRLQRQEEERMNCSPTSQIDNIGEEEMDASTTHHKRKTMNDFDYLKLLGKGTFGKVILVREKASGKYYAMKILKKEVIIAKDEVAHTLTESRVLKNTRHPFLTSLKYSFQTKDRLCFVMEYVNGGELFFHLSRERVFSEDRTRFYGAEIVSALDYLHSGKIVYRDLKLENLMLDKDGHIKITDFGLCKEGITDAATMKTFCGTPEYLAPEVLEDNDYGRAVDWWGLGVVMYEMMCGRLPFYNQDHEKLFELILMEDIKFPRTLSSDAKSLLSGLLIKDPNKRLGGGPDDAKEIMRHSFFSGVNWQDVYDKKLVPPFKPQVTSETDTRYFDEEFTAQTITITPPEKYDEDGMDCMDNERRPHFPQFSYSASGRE
T2 sequence (P31749 with tags, fused parts or gaps): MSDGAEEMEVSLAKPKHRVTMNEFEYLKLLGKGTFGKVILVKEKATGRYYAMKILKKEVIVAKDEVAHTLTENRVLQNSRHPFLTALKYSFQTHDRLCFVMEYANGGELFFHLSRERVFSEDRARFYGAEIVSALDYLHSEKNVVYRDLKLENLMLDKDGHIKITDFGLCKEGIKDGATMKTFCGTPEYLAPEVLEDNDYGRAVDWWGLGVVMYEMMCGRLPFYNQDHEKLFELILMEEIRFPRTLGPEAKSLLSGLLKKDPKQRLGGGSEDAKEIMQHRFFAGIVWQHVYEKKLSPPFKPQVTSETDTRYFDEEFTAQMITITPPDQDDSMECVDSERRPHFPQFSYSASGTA
T3 sequence (P31751 whole entry): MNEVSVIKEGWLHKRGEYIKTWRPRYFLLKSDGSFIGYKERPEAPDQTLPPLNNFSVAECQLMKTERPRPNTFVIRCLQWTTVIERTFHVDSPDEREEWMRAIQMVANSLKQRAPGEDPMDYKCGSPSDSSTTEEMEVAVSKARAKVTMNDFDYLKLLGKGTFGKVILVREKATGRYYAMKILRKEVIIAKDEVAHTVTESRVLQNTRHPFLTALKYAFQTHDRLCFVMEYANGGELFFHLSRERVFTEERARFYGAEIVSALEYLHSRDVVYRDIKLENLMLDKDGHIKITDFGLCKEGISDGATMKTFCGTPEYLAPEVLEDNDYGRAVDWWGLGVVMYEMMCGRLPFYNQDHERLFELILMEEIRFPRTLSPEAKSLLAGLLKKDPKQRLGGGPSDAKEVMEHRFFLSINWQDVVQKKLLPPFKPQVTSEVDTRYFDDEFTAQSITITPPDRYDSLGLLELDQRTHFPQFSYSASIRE
T1 sequence (P31749 whole entry): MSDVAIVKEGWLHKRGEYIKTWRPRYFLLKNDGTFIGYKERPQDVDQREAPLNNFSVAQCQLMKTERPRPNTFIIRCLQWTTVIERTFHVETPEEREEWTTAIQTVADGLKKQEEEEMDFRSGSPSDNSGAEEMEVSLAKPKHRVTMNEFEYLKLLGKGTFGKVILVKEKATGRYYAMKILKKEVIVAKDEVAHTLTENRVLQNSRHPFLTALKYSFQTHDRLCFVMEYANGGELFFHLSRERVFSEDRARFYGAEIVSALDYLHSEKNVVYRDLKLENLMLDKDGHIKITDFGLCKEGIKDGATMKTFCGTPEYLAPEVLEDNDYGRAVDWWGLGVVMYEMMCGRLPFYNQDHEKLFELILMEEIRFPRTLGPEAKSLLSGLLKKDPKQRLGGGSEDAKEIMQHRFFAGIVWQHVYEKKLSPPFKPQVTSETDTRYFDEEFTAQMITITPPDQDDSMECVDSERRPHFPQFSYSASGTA

Row | SMILES | IC50 (Human Akt1) [µM] | IC50 (ΔPH-Akt1) [µM] | IC50 (Human Akt2) [µM] | IC50 (Human Akt3) [µM] | IC50 (PKA catalytic subunit) [µM] | IC50 (PKC) [µM] | IC50 (ΔPH-Akt2) [µM]
1 | COc1cc(-c2[nH]c(C3CCCN3C)nc2-c2ccncc2)ccc1Cl (stereo not shown) [Compound 19-11, 1-methyl-2-[5-(4-chloro-3-methoxyphenyl)-4-pyridin-4-yl-1H-imidazol-2-yl]-pyrrolidine] | 51.7 | > 50 | > 50 | 1.4 | 0.076 | 0.65 | –
2 | CN(C)CC(C)(C)CNc1nn2c(-c3ccccc3)nnc2cc1C1CCC1 [Compound 1, N′-(7-Cyclobutyl-3-phenyl-[1,2,4]triazolo[4,3-b]pyridazin-6-yl)-2,2,N,N-tetramethyl-propane-1,3-diamine] | – | – | – | – | – | – | > 100
3 | OCCOc1nn2c(-c3ccccc3)nnc2cc1-c1ccccc1 [Compound 8, 6-(2-Hydroxyethyl)oxy-3,7-diphenyl-[1,2,4]triazolo[4,3-b]pyridazine] | – | > 50 | > 50 | > 50 | – | – | –

From US20060142178A1, “Method of treating cancer” (priority 2002, published 2006)
